We go through 24 compounds from PubChem BioAssay AID330 (DTP/NCI, 2004).

The assay deals with P388 leukemia ip, CD2F1 mice, survival T/C. Description: NCI In Vivo Anticancer Drug Screen. Data for tumor model P388 Leukemia (intraperitoneal) in CD2F1 (CDF1) mice. Conditions: endpoint: median survival time, higher = longer survival. A digest of the protocol: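 Mice carrying the transplanted tumor received test compound or vehicle. Survival was recorded in each group, and the value is the treated-group measurement divided by that of the vehicle-treated control group.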

The mark [1] stands for this setting: dose: 60.0 mg/kg/injection, schedule: Q01DX005 (ip), vehicle: saline with Tween-80.
Where [2] appears, read: dose: 120.0 mg/kg/injection, schedule: Q01DX005 (ip), vehicle: saline with Tween-80.
[3] abbreviates: dose: 7.5 mg/kg/injection, schedule: Q01DX005 (ip), vehicle: saline with Tween-80.
The mark [4] stands for this setting: dose: 15.0 mg/kg/injection, schedule: Q01DX005 (ip), vehicle: saline with Tween-80.
Setting [5] is: dose: 30.0 mg/kg/injection, schedule: Q01DX005 (ip), vehicle: saline with Tween-80.
The mark [6] stands for this setting: dose: 12.5 mg/kg/injection, schedule: Q01DX009 (ip), vehicle: saline with Tween-80.
[7] abbreviates: dose: 25.0 mg/kg/injection, schedule: Q01DX009 (ip), vehicle: saline with Tween-80.
The mark [8] stands for this setting: dose: 50.0 mg/kg/injection, schedule: Q01DX009 (ip), vehicle: saline with Tween-80.
The mark [9] stands for this setting: dose: 100.0 mg/kg/injection, schedule: Q01DX009 (ip), vehicle: saline with Tween-80.
[10] abbreviates: dose: 240.0 mg/kg/injection, schedule: Q01DX005 (ip), vehicle: saline with Tween-80.
[11] abbreviates: dose: 50.0 mg/kg/injection, schedule: Q04DX003 (ip), vehicle: saline with Tween-80.
Where [12] appears, read: dose: 100.0 mg/kg/injection, schedule: Q04DX003 (ip), vehicle: saline with Tween-80.
Setting [13] is: dose: 200.0 mg/kg/injection, schedule: Q04DX003 (ip), vehicle: saline with Tween-80.
Setting [14] is: dose: 400.0 mg/kg/injection, schedule: Q04DX003 (ip), vehicle: saline with Tween-80.
The mark [15] stands for this setting: dose: 200.0 mg/kg/injection, schedule: Q01DX009 (ip), vehicle: saline with Tween-80.
The mark [16] stands for this setting: dose: 100.0 mg/kg/injection, schedule: Q01DX009 (ip), vehicle: Klucel (hydroxypropylcellulose) (HPC).
The mark [17] stands for this setting: dose: 200.0 mg/kg/injection, schedule: Q01DX009 (ip), vehicle: Klucel (hydroxypropylcellulose) (HPC).
Where [18] appears, read: dose: 25.0 mg/kg/injection, schedule: Q01DX005 (ip), vehicle: Klucel (hydroxypropylcellulose) (HPC).

SMILES strings stand for the structures. Where “and” joins values, the source holds several entries; their conditions need not be identical. Equal entries are not always repeated. Toxic doses and inconclusive results are not listed.

Take `N#CC(C(=O)C(=O)Nc1ccc(Cl)c(Cl)c1)c1ccccc1` (stereo unspecified): the T/C is 100 % of control under setting [1] and 99 % of control under setting [2].

On to `COC(=O)C1(C2CCc3cc(OC)ccc3C2=O)NC(=S)NC(=O)C1C#N` (stereo unspecified), for which the T/C reads like this: under setting [3], 96 % of control; under setting [4], 97 % of control; under setting [5], 93 % of control.

Take `Nc1nc2[nH]ccc2c(=O)[nH]1`: the T/C by setting is: under setting [6], 95 % of control; under setting [7], 94 % of control; under setting [8], 104 % of control; under setting [9], 113 % of control.

As to `CCN(CC)CCSC1OC(=O)c2ccccc21` (stereo unspecified), the T/C reads like this: (dose: 1.25 mg/kg/injection, schedule: Q01DX009 (ip), vehicle: saline) 104 % of control; (dose: 2.5 mg/kg/injection, schedule: Q01DX009 (ip), vehicle: saline) 103 % of control; (dose: 5.0 mg/kg/injection, schedule: Q01DX009 (ip), vehicle: saline) 109 % of control; (dose: 10.0 mg/kg/injection, schedule: Q01DX009 (ip), vehicle: saline) 109 % of control.

`CCOC(=O)Nn1c(C)c(C(N)=O)c(C(=O)OC)c1C`: the T/C under setting [1] is 100 % of control, the T/C under setting [2] was 96 % of control and the T/C under setting [10] was 103 % of control.

Turning to `C1=CC2OC2CCCCCCCC1` (mixture of isomers), the T/C is, setting by setting: under setting [7], 106 % of control; under setting [8], 107 % of control; under setting [9], 109 % of control.

In the case of `CC1=C(C)C(=Nc2ccc(N(CCCl)CCCl)cc2)C=CC1=O`, the T/C (dose: 50.0 mg/kg/injection, schedule: Q01DX001 (ip), vehicle: Klucel (hydroxypropylcellulose) (HPC)) is 97 % of control; the T/C (dose: 100.0 mg/kg/injection, schedule: Q01DX001 (ip), vehicle: Klucel (hydroxypropylcellulose) (HPC)) was 100 % of control; the T/C (dose: 200.0 mg/kg/injection, schedule: Q01DX001 (ip), vehicle: Klucel (hydroxypropylcellulose) (HPC)) is 114 % of control.

In the case of `N#CC1=C(N)OC(c2ccccc2)=C(C#N)C1c1ccccc1` (stereo unspecified), the T/C reads like this: under setting [1], 98 % of control; under setting [2], 96 % of control; under setting [10], 91 % of control.

For `CC1C(=O)CC2CCC1N2C(=O)O` (stereo unspecified), the T/C is 96 % of control (dose: 50.0 mg/kg/injection, schedule: Q01DX005 (ip), vehicle: saline); 96 % of control (dose: 100.0 mg/kg/injection, schedule: Q01DX005 (ip), vehicle: saline); 94 % of control (dose: 200.0 mg/kg/injection, schedule: Q01DX005 (ip), vehicle: saline).

Regarding `O=[n+]1c2ccccc2n([O-])c2cc(Cl)ccc21`, the T/C is, setting by setting: (dose: 25.0 mg/kg/injection, schedule: Q04DX003 (ip), vehicle: saline with Tween-80) 112 % of control; under setting [8], 150 % of control; under setting [11], 112 % of control; under setting [9], 154 % of control and 174 % of control; under setting [12], 107 % of control; under setting [13], 114 % of control. Besides, under setting [14], the T/C is 114 % of control.

With `Cn1c(-c2ccccc2)c2c(=O)oc3ccccc3c2c1-c1ccccc1`, the T/C is, setting by setting: (dose: 25.0 mg/kg/injection, schedule: Q04DX003 (ip), vehicle: Klucel (hydroxypropylcellulose) (HPC)) 97 % of control; (dose: 50.0 mg/kg/injection, schedule: Q04DX003 (ip), vehicle: Klucel (hydroxypropylcellulose) (HPC)) 100 % of control; (dose: 100.0 mg/kg/injection, schedule: Q04DX003 (ip), vehicle: Klucel (hydroxypropylcellulose) (HPC)) 88 % of control and 94 % of control.

In the case of `c1ccc2c(c1)cc1c3nncn3ncn21`, the T/C runs as follows: under setting [6], 100 % of control; under setting [7], 92 % of control; under setting [8], 93 % of control.

Turning to `CSCCC(O)C(NC(=O)CCl)C(=O)O` (stereo unspecified), the T/C was 89 % of control and 96 % of control (dose: 50.0 mg/kg/injection, schedule: Q01DX009 (ip), vehicle: saline); 98 % of control and 102 % of control (dose: 100.0 mg/kg/injection, schedule: Q01DX009 (ip), vehicle: saline); 93 % of control and 95 % of control (dose: 200.0 mg/kg/injection, schedule: Q01DX009 (ip), vehicle: saline).

Regarding `O=c1[nH][nH]c(=O)c2[nH]cnc12`, the T/C by setting is: under setting [11], 98 % of control; under setting [12], 100 % of control; under setting [13], 100 % of control; under setting [14], 106 % of control.

For the compound `OCCN(CCO)C(Cc1ccccc1)c1ccccc1` (stereo unspecified), the T/C by setting is: (dose: 50.0 mg/kg/injection, schedule: Q01DX005 (ip), vehicle: saline with Tween-80) 110 % of control; (dose: 100.0 mg/kg/injection, schedule: Q01DX005 (ip), vehicle: saline with Tween-80) 105 % of control; (dose: 200.0 mg/kg/injection, schedule: Q01DX005 (ip), vehicle: saline with Tween-80) 110 % of control.

Turning to `[N-]=[N+]=N/C=C1\CCOC1=O`, the T/C by setting is: under setting [3], 101 % of control; under setting [4], 100 % of control; under setting [5], 99 % of control and 100 % of control; under setting [10], 99 % of control.

With `COC(=O)C(C#N)c1ccccn1` (stereo unspecified), the T/C runs as follows: under setting [8], 96 % of control; under setting [9], 100 % of control.

As for `CC(C)(C)N(O)c1ccc(P(=O)(c2ccccc2)c2ccccc2)cc1`, the T/C was 99 % of control under setting [8], 99 % of control under setting [9] and 99 % of control under setting [15].

For `CCc1cc(Cc2cc(CC)cc(C(C)(C)C)c2O)c(O)c(C(C)(C)C)c1`, the T/C is 107 % of control under setting [16]; 90 % of control under setting [17]; 104 % of control and 90 % of control (dose: 400.0 mg/kg/injection, schedule: Q01DX009 (ip), vehicle: Klucel (hydroxypropylcellulose) (HPC)).

For the compound `C=C1CCC2C(OC(=O)C2(O)COC(C)=O)C2C(=C)C(O)CC12` (stereo unspecified), the T/C (dose: 10.63 mg/kg/injection, schedule: Q01DX005 (ip), vehicle: Klucel (hydroxypropylcellulose) (HPC)) is 99 % of control; the T/C (dose: 21.25 mg/kg/injection, schedule: Q01DX005 (ip), vehicle: Klucel (hydroxypropylcellulose) (HPC)) was 104 % of control; the T/C (dose: 42.5 mg/kg/injection, schedule: Q01DX005 (ip), vehicle: Klucel (hydroxypropylcellulose) (HPC)) is 100 % of control; the T/C (dose: 85.0 mg/kg/injection, schedule: Q01DX005 (ip), vehicle: Klucel (hydroxypropylcellulose) (HPC)) was 106 % of control; the T/C (dose: 170.0 mg/kg/injection, schedule: Q01DX005 (ip), vehicle: Klucel (hydroxypropylcellulose) (HPC)) is 106 % of control.

Regarding `c1ccc(Cn2nnnc2Nc2ccccc2)cc1`, the T/C reads like this: under setting [18], 94 % of control; (dose: 50.0 mg/kg/injection, schedule: Q01DX005 (ip), vehicle: Klucel (hydroxypropylcellulose) (HPC)) 88 % of control and 97 % of control; (dose: 100.0 mg/kg/injection, schedule: Q01DX005 (ip), vehicle: Klucel (hydroxypropylcellulose) (HPC)) 94 % of control; (dose: 200.0 mg/kg/injection, schedule: Q01DX005 (ip), vehicle: Klucel (hydroxypropylcellulose) (HPC)) 90 % of control.

In the case of `N[C@H](Cc1c[nH]c2ccccc12)C(=O)O`, the T/C is, setting by setting: under setting [9], 98 % of control; under setting [15], 103 % of control; (dose: 400.0 mg/kg/injection, schedule: Q01DX009 (ip), vehicle: saline with Tween-80) 103 % of control.

Take `CC(C)(C)c1cc(C#C[Si](C)(C)C)cc(C(C)(C)C)c1`: the T/C reads like this: (dose: 6.25 mg/kg/injection, schedule: Q01DX005 (ip), vehicle: Klucel (hydroxypropylcellulose) (HPC)) 98 % of control; (dose: 12.5 mg/kg/injection, schedule: Q01DX005 (ip), vehicle: Klucel (hydroxypropylcellulose) (HPC)) 101 % of control; under setting [18], 92 % of control.

As for `CC(C)(C)c1ccc(C(=O)Nc2ccc(Cl)cc2Oc2ccccc2)cc1`, the T/C (dose: 50.0 mg/kg/injection, schedule: Q01DX009 (ip), vehicle: Klucel (hydroxypropylcellulose) (HPC)) was 93 % of control; the T/C under setting [16] was 97 % of control; the T/C under setting [17] was 86 % of control.
